Measured values from patent US9988379B2, “GPR40 receptor agonist, methods of preparing the same, and pharmaceutical compositions containing the same as an active agent” (LG CHEM, LTD., priority 2012, dated 2018).

Target: T1, human GPR40 (Homo sapiens, UniProt O14842)
T1 construct: expressed in transfected cells; host or cells: CHO-K1
Assay: Induction of Ca2+ (calcium flux assay) using human GPR40 expression cell line
Type: cell-based
Conditions: read-out: EC0.5
In short: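 Read-out is intracellular Ca2+ flux on FlexStation after test compounds (DMSO stocks diluted 200-fold in assay buffer) were added to dye-loaded human GPR40/CHO-K1 cells. Cells had been cultured 24 h, then incubated 1 h at 37° C with Calcium 5 dye, HBSS-HEPES pH 7.4; EC0.5 from concentration plot.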

T1 sequence (O14842 whole entry): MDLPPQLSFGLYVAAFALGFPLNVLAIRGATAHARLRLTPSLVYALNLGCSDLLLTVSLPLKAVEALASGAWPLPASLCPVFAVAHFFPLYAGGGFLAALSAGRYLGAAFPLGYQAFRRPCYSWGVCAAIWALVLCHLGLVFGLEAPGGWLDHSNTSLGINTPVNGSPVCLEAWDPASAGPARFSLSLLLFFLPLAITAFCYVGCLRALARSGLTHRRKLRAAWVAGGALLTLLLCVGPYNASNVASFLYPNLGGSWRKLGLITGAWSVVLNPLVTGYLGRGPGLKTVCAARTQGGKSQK

| EC50 [µM] | SMILES |
| --- | --- |
| 0.4 | O=C(O)CC1COc2cc(OCc3ccc4cnn(Cc5ccccc5)c4c3)ccc21 (centres unmarked) [Example 105, [6-(1-benzyl-1H-indazol-6-ylmethoxy)-2,3-dihydro-benzofuran-3-yl]-acetic acid] |
| 0.001 to 0.05 | O=C(O)CCc1ccc(OCc2ccc3cnn(Cc4ccccc4)c3c2)cc1F [Example 106, 3-[4-(1-benzyl-1H-indazol-6-ylmethoxy)-2-fluoro-phenyl]-propanoic acid] |
| 0.2 | O=C(O)CCc1ccc(OCc2ccc3cnn(CC4CCCC4)c3c2)cc1F [Example 107, 3-[4-(1-cyclopentylmethyl-1H-indazol-6-ylmethoxy)-2-fluoro-phenyl]-propanoic acid] |
| 0.4 | O=C(O)CC1CCc2cc(OCc3ccc4cnn(Cc5ccccc5)c4c3)ccc21 (centres unmarked) [Example 109, [5-(1-benzyl-1H-indazol-6-ylmethoxy)-indan-1-yl]-acetic acid] |
| 0.2 | O=C(O)CC1CCCc2cc(OCc3ccc4cnn(Cc5ccccc5)c4c3)ccc21 (centres unmarked) [Example 110, [6-(1-benzyl-1H-indazol-6-ylmethoxy)-1,2,3,4-tetrahydro-naphthalen-1-yl]-acetic acid] |
| 0.001 to 0.05 | CC#C[C@@H](CC(=O)O)c1ccc(OCc2ccc3c(cnn3Cc3ccccc3)c2)cc1 [Example 111, (S)-3-[4-(1-benzyl-1H-indazol-5-ylmethoxy)-phenyl]-hex-4-ynoic acid] |
| 0.001 to 0.05 | CC#C[C@@H](CC(=O)O)c1ccc(OCc2ccc3nn(Cc4ccccc4)cc3c2)cc1 [Example 112, (S)-3-[4-(2-benzyl-2H-indazol-5-ylmethoxy)-phenyl]-hex-4-ynoic acid] |
| 9.1 | O=C(O)CC1COc2cc(OCc3ccc4cn(Cc5ccccc5)nc4c3)ccc21 (centres unmarked) [Example 113, [6-(2-benzyl-2H-indazol-6-ylmethoxy)-2,3-dihydro-benzofuran-3-yl]-acetic acid] |
| 0.001 to 0.05 | CC#C[C@@H](CC(=O)O)c1ccc(OCc2ccc3cnn(CC(C)C)c3c2)cc1 [Example 114, (S)-3-[4-(1-isobutyl-1H-indazol-6-ylmethoxy)-phenyl]-hex-4-ynoic acid] |
| 0.001 to 0.05 | CC#C[C@@H](CC(=O)O)c1ccc(OCc2ccc3ccn(CC(C)C)c3n2)cc1 [Example 115, (S)-3-[4-(1-isobutyl-1H-pyrrolo[2,3-b]pyridin-6-ylmethoxy)-phenyl]-hex-4-ynoic acid] |

Further lines, the molecule ahead of its results:

| SMILES | EC50 [µM] |
| --- | --- |
| O=C(O)C[C@@H](c1ccc(OCc2ccc3cnn(Cc4ccccc4)c3c2)cc1)c1ccon1 [Example 85, (S)-3-[4-(1-benzyl-1H-indazol-6-ylmethoxy)-phenyl]-3-isoxazol-3-yl-propanoic acid] | 0.01 |
| O=C(O)C[C@@H](c1ccc(OCc2ccc3cnn(Cc4ccc(F)cc4)c3c2)cc1)c1ccon1 [Example 86, (S)-3-{4-[1-(4-fluoro-benzyl)-1H-indazol-6-ylmethoxy]-phenyl}-3-isoxazol-3-yl-propanoic acid] | 0.01 |
| CC(C)Cn1ncc2ccc(COc3ccc([C@H](CC(=O)O)c4ccon4)cc3)cc21 [Example 87, (S)-3-[4-(1-isobutyl-1H-indazol-6-ylmethoxy)-phenyl]-3-isoxazol-3-yl-propanoic acid] | 0.01 |
| CC(C)Cn1cc2ccc(COc3ccc([C@H](CC(=O)O)c4ccon4)cc3)cc2n1 [Example 88, (S)-3-[4-(2-isobutyl-2H-indazol-6-ylmethoxy)-phenyl]-3-isoxazol-3-yl-propanoic acid] | 0.4 |
| Cc1c(COc2ccc([C@H](CC(=O)O)c3ccon3)cc2)ccc2ccn(Cc3cnccn3)c12 [Example 89, (S)-3-isoxazol-3-yl-3-[4-(7-methyl-1-pyrazin-2-ylmethyl-1H-indol-6-ylmethoxy)-phenyl]-propanoic acid] | 0.03 |
| CC#C[C@@H](CC(=O)O)c1ccc(OCc2ccc3ccn(Cc4ccccc4)c3n2)cc1 [Example 90, (S)-3-[4-(1-benzyl-1H-pyrrolo[2,3-b]pyridin-6-ylmethoxy)-phenyl]-hex-4-ynoic acid] | 0.01 |
| O=C(O)C[C@@H](c1ccc(OCc2ccc3ccn(Cc4ccccc4)c3n2)cc1)c1ccon1 [Example 91, (S)-3-[4-(1-benzyl-1H-pyrrolo[2,3-b]pyridin-6-ylmethoxy)-phenyl]-3-isoxazol-3-yl-propanoic acid] | 0.03 |
| Cc1cnc(Cn2ccc3ccc(COc4ccc([C@H](CC(=O)O)c5ccon5)cc4)c(C)c32)cn1 [Example 92, (S)-3-isoxazol-3-yl-3-{4-[7-methyl-1-(5-methyl-pyrazin-2-ylmethyl)-1H-indol-6-ylmethoxy]-phenyl}-propanoic acid] | 0.001 to 0.05 |
| CC#C[C@@H](CC(=O)O)c1ccc(OCc2ccc3cnn(Cc4ccc(C)nc4)c3c2)cc1 [Example 93, (S)-3-{4-[1-(6-methyl-pyridin-3-ylmethyl)-1H-indazol-6-ylmethoxy]-phenyl}-hex-4-ynoic acid] | 0.05 to 0.5 |
| O=C(O)C[C@@H](c1ccc(OCc2cccc3c2cnn3Cc2ccccc2)cc1)c1ccon1 [Example 94, (S)-3-[4-(1-benzyl-1H-indazol-4-ylmethoxy)-phenyl]-3-isoxazol-3-yl-propanoic acid] | 0.06 |
| O=C(O)C[C@@H](c1ccc(OCc2ccc3ccn(Cc4ccc(F)cc4)c3n2)cc1)c1ccon1 [Example 95, (S)-3-{4-[1-(4-fluoro-benzyl)-1H-pyrrolo[2,3-b]pyridin-6-ylmethoxy]-phenyl}-3-isoxazol-3-yl-propanoic acid] | 0.1 |
| CC(C)n1ncc2ccc(COc3ccc([C@H](CC(=O)O)c4ccon4)cc3)cc21 [Example 96, (S)-3-[4-(1-isopropyl-1H-indazol-6-ylmethoxy)-phenyl]-3-isoxazol-3-yl-propanoic acid] | 0.03 |
| O=C(O)C[C@@H](c1ccc(OCc2ccc3cnn(CC4CC4)c3c2)cc1)c1ccon1 [Example 97, (S)-3-[4-(1-cyclopropylmethyl-1H-indazol-6-ylmethoxy)-phenyl]-3-isoxazol-3-yl-propanoic acid] | 0.05 |
| CC(C)Cn1ccc2ccc(COc3ccc([C@H](CC(=O)O)c4ccon4)cc3)nc21 [Example 98, (S)-3-[4-(1-isobutyl-1H-pyrrolo[2,3-b]pyridin-6-ylmethoxy)-phenyl]-3-isoxazol-3-yl-propanoic acid] | 0.001 to 0.05 |
| CC(C)n1cc2ccc(COc3ccc([C@H](CC(=O)O)c4ccon4)cc3)cc2n1 [Example 99, (S)-3-[4-(2-isopropyl-2H-indazol-6-ylmethoxy)-phenyl]-3-isoxazol-3-yl-propanoic acid] | 1.3 |
| CC(C)n1ncc2ccc(COc3ccc4c(c3)OCC4CC(=O)O)cc21 (centres unmarked) [Example 100, [6-(1-isopropyl-1H-indazol-6-ylmethoxy)-2,3-dihydro-benzofuran-3-yl]-acetic acid] | 0.6 |
| Cn1ncc2ccc(COc3ccc([C@H](CC(=O)O)c4ccon4)cc3)cc21 [Example 101, (S)-3-isoxazol-3-yl-3-[4-(1-methyl-1H-indazol-6-ylmethoxy)-phenyl]-propanoic acid] | 0.09 |
| O=C(O)C[C@@H](c1ccc(OCc2ccc3cn[nH]c3c2)cc1)c1ccon1 [Example 102, (S)-3-[4-(1H-indazol-6-ylmethoxy)-phenyl]-3-isoxazol-3-yl-propanoic acid] | 0.4 |
| O=C(O)C[C@@H](c1ccc(OCc2ccc3cnn(CC4CCCC4)c3c2)cc1)c1ccon1 [Example 103, (S)-3-[4-(1-cyclopentylmethyl-1H-indazol-6-ylmethoxy)-phenyl]-3-isoxazol-3-yl-propanoic acid] | 0.01 |
